Assay results as given in ChEMBL document CHEMBL1129258, “Synthesis and structure-activity relationships of 2-pyridones: a novel series of potent DNA gyrase inhibitors as antibacterial agents” (J Med Chem, 1996).
Values after ≈ are worked out from the molar mass of the structure shown.

Experiments:
Streptococcus pyogenes = test: In vitro antibacterial activity against gram-positive organism Streptococcus pyogenes EES61; format: functional; settings: Streptococcus pyogenes; read-out: MIC
[1] = molecular target: T1, DNA gyrase (Escherichia coli) (UniProt P0AES6+P0AES4); test: In vivo efficacy against Escherichia coli JUHL after oral administration; format: functional, organism-based; settings: Escherichia coli K-12
[2] = In vitro antibacterial activity against gram-negative organism Pseudomonas aeruginosa 5007; format: functional; settings: Pseudomonas aeruginosa; read-out: MIC
[3] = molecular target: T2, DNA gyrase (Staphylococcus aureus) (UniProt P0A0K8+P20831); test: In vitro antibacterial activity against gram-positive organism Staphylococcus aureus NCTC-10649M; format: functional
T2 sequence (P0A0K8 2-644 limits assumed): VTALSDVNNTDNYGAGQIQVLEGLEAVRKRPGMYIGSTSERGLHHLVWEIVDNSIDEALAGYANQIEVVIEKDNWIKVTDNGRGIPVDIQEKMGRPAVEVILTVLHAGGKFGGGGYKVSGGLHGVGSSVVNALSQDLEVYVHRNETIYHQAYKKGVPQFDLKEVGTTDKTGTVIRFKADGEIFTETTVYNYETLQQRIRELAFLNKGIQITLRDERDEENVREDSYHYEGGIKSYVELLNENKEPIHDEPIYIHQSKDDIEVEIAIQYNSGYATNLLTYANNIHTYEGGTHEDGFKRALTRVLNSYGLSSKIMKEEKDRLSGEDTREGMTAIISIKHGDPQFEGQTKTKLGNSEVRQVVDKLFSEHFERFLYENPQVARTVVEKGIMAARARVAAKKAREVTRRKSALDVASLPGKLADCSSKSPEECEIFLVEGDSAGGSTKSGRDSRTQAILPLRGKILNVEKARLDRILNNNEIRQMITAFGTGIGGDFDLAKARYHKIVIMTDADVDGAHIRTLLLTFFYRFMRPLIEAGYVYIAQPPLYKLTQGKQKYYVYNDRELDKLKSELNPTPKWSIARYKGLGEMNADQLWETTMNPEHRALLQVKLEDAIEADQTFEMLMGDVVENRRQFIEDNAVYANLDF
T2 sequence (P20831 whole entry partner): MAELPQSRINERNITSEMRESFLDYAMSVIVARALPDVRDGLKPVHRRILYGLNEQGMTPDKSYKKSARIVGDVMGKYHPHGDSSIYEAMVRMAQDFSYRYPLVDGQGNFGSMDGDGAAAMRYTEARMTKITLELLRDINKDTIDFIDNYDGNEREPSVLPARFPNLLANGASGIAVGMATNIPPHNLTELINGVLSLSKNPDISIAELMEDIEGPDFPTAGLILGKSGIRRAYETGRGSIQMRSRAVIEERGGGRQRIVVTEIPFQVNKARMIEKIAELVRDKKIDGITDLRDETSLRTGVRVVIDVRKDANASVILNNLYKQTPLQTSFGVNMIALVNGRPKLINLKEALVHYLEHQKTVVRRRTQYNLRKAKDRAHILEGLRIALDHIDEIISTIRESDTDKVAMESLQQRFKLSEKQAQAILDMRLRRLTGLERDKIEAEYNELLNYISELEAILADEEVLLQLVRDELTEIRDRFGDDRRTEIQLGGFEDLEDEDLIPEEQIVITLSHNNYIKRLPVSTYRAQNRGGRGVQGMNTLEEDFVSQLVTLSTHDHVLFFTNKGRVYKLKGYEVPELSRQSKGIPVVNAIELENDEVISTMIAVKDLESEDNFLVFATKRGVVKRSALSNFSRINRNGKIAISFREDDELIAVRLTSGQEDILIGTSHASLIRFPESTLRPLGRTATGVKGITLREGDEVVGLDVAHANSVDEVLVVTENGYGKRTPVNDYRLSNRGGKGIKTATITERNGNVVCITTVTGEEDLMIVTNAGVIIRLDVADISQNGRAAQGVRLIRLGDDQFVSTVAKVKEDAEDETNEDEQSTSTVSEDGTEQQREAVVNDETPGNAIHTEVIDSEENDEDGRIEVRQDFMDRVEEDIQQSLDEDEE

[4] = molecular target: T1, DNA gyrase (Escherichia coli); test: In vitro antibacterial activity against gram-negative organism Klebsiella pneumoniae ATCC 8045; format: functional
[5] = In vitro antibacterial activity against gram-negative organism Pseudomonas aeruginosa DPHD-2862; format: functional; settings: Pseudomonas aeruginosa; read-out: MIC
[6] = molecular target: T1, DNA gyrase (Escherichia coli); test: In vitro antibacterial activity against gram-positive organism Streptococcus bovis A-5169; format: functional; settings: Streptococcus equinus
[7] = molecular target: T1, DNA gyrase (Escherichia coli); test: In vitro antibacterial activity against gram-negative organism […] ATCC 13048; format: functional; settings: Enterobacter aerogenes
[8] = molecular target: T1, DNA gyrase (Escherichia coli); test: In vitro antibacterial against gram-negative organism Escherichia coli JUHL; format: functional; settings: Escherichia coli K-12
[9] = molecular target: T1, DNA gyrase (Escherichia coli); test: In vitro antibacterial activity against gram-positive organism Enterococcus faecium ATCC 8043; format: functional
[10] = molecular target: T2, DNA gyrase (Staphylococcus aureus); test: In vivo efficacy against Staphylococcus aureus NCTC-10649M after subcutaneous administration; format: functional, organism-based
[11] = molecular target: T2, DNA gyrase (Staphylococcus aureus); test: In vitro antibacterial activity against gram-positive organism Staphylococcus aureus 1775; format: functional
[12] = molecular target: T2, DNA gyrase (Staphylococcus aureus); test: In vivo efficacy against Staphylococcus aureus NCTC-10649M after oral administration; format: functional, organism-based
[13] = molecular target: T1, DNA gyrase (Escherichia coli); settings: Escherichia coli K-12
Description: Concentration which causes 50% of the gyrase (Escherichia coli H560)-mediated maximal DNA cleavage.

[14] = molecular target: T2, DNA gyrase (Staphylococcus aureus); test: In vitro antibacterial activity against gram-positive organism Staphylococcus aureus ATCC 6538p; format: functional
[15] = molecular target: T1, DNA gyrase (Escherichia coli); test: In vivo efficacy against Escherichia coli JUHL by subcutaneous administration; format: functional, organism-based; settings: Escherichia coli K-12
[16] = molecular target: T1, DNA gyrase (Escherichia coli); test: In vitro antibacterial activity against gram-negative organism Prov. stuartii CMX-640; format: functional; settings: Providencia stuartii
Pseudomonas aeruginosa = test: In vivo efficacy against Pseudomonas aeruginosa 5007 following p.o. administration.
[17] = In vivo efficacy against Pseudomonas aeruginosa 5007 after subcutaneous administration; format: functional; settings: Pseudomonas aeruginosa, sc; read-out: ED50
Streptococcus pneumoniae = test: In vivo efficacy against Strep. administration; format: functional

Compound	MIC (Streptococcus pyogenes)	ED50 [1]	MIC [2]	MIC [3]	MIC [4]	MIC [5]	MIC [6]	MIC [7]	MIC [8]	MIC [9]	ED50 [10]	MIC [11]	ED50 [12]	CC50 [13]	MIC [14]	ED50 [15]	MIC [16]	ED50 (Pseudomonas aeruginosa)	ED50 [17]	other results
NC1CCN(c2nc3c(C4CC4)cc(C(=O)O)c(=O)n3cc2F)C1 (stereo not given)	1.56 mg/L (≈ 4.69 µM)	4.7 mg/kg	0.39 mg/L (≈ 1.17 µM)	0.2 mg/L (≈ 0.602 µM)	0.02 mg/L (≈ 0.0602 µM)	25 mg/L (≈ 75.2 µM)	3.1 mg/L (≈ 9.33 µM)	0.02 mg/L (≈ 0.0602 µM)	0.02 mg/L (≈ 0.0602 µM)	1.56 mg/L (≈ 4.69 µM)	> 8 mg/kg	25 mg/L (≈ 75.2 µM)	> 12 mg/kg	0.15 mg/L (≈ 0.451 µM)	0.2 mg/L (≈ 0.602 µM)	1 mg/kg	1.56 mg/L (≈ 4.69 µM)			
CC(NC1CCN(c2nc3c(-c4ccc(F)cc4F)cc(C(=O)O)c(=O)n3cc2F)C1)C(=O)O (stereo not given)		16.6 mg/kg									2.7 mg/kg		14.4 mg/kg			< 2.5 mg/kg		68.8 mg/kg	34.4 mg/kg	ED50 (Streptococcus pneumoniae): 79.8 mg/kg; ED50 (Streptococcus pneumoniae; Streptococcus pneumoniae, read-out: ED50): 164 mg/kg
Cc1c(N2C[C@@H]3CCCN[C@@H]3C2)c(F)cn2c(=O)c(C(=O)O)cc(C3CC3)c12 (stereo in doubt; 45n)		3.3 mg/kg		0.02 mg/L (≈ 0.0519 µM)	0.01 mg/L (≈ 0.0259 µM)		0.05 mg/L (≈ 0.13 µM)	0.05 mg/L (≈ 0.13 µM)	0.05 mg/L (≈ 0.13 µM)	0.1 mg/L (≈ 0.259 µM)	0.9 mg/kg	0.78 mg/L (≈ 2.02 µM)	3.1 mg/kg	0.3 mg/L (≈ 0.778 µM)	0.01 mg/L (≈ 0.0259 µM)	1 mg/kg	0.78 mg/L (≈ 2.02 µM)	36.4 mg/kg		
Cc1c(N2C[C@@H]3CCN[C@@H]3C2)c(F)cn2c(=O)c(C(=O)O)cc(C3CC3)c12 (stereo in doubt; 45o)		2.5 mg/kg		0.02 mg/L (≈ 0.0538 µM)	0.01 mg/L (≈ 0.0269 µM)		0.05 mg/L (≈ 0.135 µM)	0.05 mg/L (≈ 0.135 µM)	0.02 mg/L (≈ 0.0538 µM)	0.05 mg/L (≈ 0.135 µM)	0.7 mg/kg	0.39 mg/L (≈ 1.05 µM)	5 mg/kg	0.1 mg/L (≈ 0.269 µM)	0.02 mg/L (≈ 0.0538 µM)	0.4 mg/kg	0.78 mg/L (≈ 2.1 µM)			
Cc1c(N2C[C@H]3CCN[C@H]3C2)c(F)cn2c(=O)c(C(=O)O)cc(C3CC3)c12 (single isomer, unassigned)		1.1 mg/kg	0.39 mg/L (≈ 1.05 µM)	0.1 mg/L (≈ 0.269 µM)	0.02 mg/L (≈ 0.0538 µM)	6.2 mg/L (≈ 16.7 µM)	0.39 mg/L (≈ 1.05 µM)	0.05 mg/L (≈ 0.135 µM)	0.05 mg/L (≈ 0.135 µM)	0.2 mg/L (≈ 0.538 µM)	0.6 mg/kg	6.2 mg/L (≈ 16.7 µM)	1.5 mg/kg		0.05 mg/L (≈ 0.135 µM)	0.5 mg/kg	0.39 mg/L (≈ 1.05 µM)	17.9 mg/kg	5 mg/kg	
Cc1c(N2C[C@@H]3[C@@H](N)[C@@H]3C2)c(F)cn2c(=O)c(C(=O)O)cc(C3CC3)c12	0.1 mg/L (≈ 0.28 µM)	> 10 mg/kg	0.2 mg/L (≈ 0.56 µM)	0.02 mg/L (≈ 0.056 µM)	0.01 mg/L (≈ 0.028 µM)	6.2 mg/L (≈ 17.3 µM)	0.1 mg/L (≈ 0.28 µM)	0.02 mg/L (≈ 0.056 µM)	0.01 mg/L (≈ 0.028 µM)	0.1 mg/L (≈ 0.28 µM)	4.1 mg/kg	1.56 mg/L (≈ 4.37 µM)	14.6 mg/kg	0.3 mg/L (≈ 0.839 µM)	0.02 mg/L (≈ 0.056 µM)	1.4 mg/kg	0.78 mg/L (≈ 2.18 µM)	> 50 mg/kg	18 mg/kg	ED50 (Streptococcus pneumoniae): 6.7 mg/kg
Cc1c(N2C[C@@H]3CCCN[C@@H]3C2)c(F)cn2c(=O)c(C(=O)O)cc(C3CC3)c12 (stereo in doubt; (S,S)45n)		1 mg/kg		0.01 mg/L (≈ 0.0259 µM)	0.01 mg/L (≈ 0.0259 µM)		0.05 mg/L (≈ 0.13 µM)	0.02 mg/L (≈ 0.0519 µM)	0.005 mg/L (≈ 0.013 µM)	0.1 mg/L (≈ 0.259 µM)	0.5 mg/kg	0.39 mg/L (≈ 1.01 µM)	2.5 mg/kg		0.01 mg/L (≈ 0.0259 µM)		0.39 mg/L (≈ 1.01 µM)	21.4 mg/kg		
Cc1c(N2CC[C@H]([C@@H](C)N)C2)c(F)cn2c(=O)c(C(=O)O)cc(C3CC3)c12	< 0.001 mg/L		0.2 mg/L (≈ 0.536 µM)	0.002 mg/L (≈ 0.00536 µM)	0.01 mg/L (≈ 0.0268 µM)	3.1 mg/L (≈ 8.3 µM)	0.005 mg/L (≈ 0.0134 µM)	0.02 mg/L (≈ 0.0536 µM)	0.01 mg/L (≈ 0.0268 µM)	0.01 mg/L (≈ 0.0268 µM)	0.3 mg/kg	0.2 mg/L (≈ 0.536 µM)	1.2 mg/kg	0.6 mg/L (≈ 1.61 µM)	0.002 mg/L (≈ 0.00536 µM)		0.39 mg/L (≈ 1.04 µM)		> 8 mg/kg	
